Here are results for 13 molecules from article PMC8270334, “Design, Sustainable Synthesis and Biological Evaluation of a Novel Dual α2A/5-HT7 Receptor Antagonist with Antidepressant-Like Properties” (Molecules, 2021).

One may read the Ki as the equilibrium dissociation constant of an inhibitor or competing ligand from its target.

The target in the first series is T1, human 5-HT7b receptor (Homo sapiens, UniProt P34969).
T1 construct: expressed in transfected cells; host or cells: HEK293
T1 sequence (P34969 1-432): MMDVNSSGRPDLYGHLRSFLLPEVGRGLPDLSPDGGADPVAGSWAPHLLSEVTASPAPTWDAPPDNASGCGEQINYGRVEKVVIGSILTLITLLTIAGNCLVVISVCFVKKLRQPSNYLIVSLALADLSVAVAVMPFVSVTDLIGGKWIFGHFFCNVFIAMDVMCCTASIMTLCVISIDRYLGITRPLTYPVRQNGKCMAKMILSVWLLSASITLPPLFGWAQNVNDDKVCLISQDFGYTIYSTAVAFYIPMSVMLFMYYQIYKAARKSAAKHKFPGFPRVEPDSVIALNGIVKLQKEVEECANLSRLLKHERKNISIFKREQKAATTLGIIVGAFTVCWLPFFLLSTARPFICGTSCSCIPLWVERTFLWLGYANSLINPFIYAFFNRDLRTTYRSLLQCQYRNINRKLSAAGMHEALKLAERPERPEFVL
The experiment in a line: radioligand binding, [3H]-5-CT displacement at 5-HT7R in HEK293 cells. As to conditions: read-out: Ki [nM] ± SEM 5-HT7. How it is done:
All experiments were performed using HEK293 cells stably expressing human 5-HT1A, 5-HT6, 5-HT7b, and D2L receptors or CHO-K1 cells with a plasmid containing the human 5-HT2A receptor coding sequence (PerkinElmer, Waltham, MA, USA), according to previously reported procedures. Cells were cultured in 150 cm^2 flasks and, after reaching a 90% confluence, were washed with PBS and the centrifugated (200 g) in PBS containing 0.1 mM EDTA and 1 mM dithiothreitol. Cell pellets were subsequently homogenized (in Ultra Turrax tissue homogenizer) and centrifugated twice (35,000× g for 15 min at 4 °C), with 15 min incubation at 37 °C between the centrifugations. All assays were incubated in dedicated buffers and in a total volume of 200 µL in 96-well microtitre plates for 1 h at 37 °C, except for 5-HT1AR and 5-HT2AR that was incubated for 1 h at room temperature. The process of equilibration is terminated by rapid filtration through Unifilter-96 (PerkinElmer) plates with a 96-well cell harvester and radioactivity retained on the filters was quantified on a Microbeta plate reader (PerkinElmer, USA). For displacement studies, the following assay samples containing the proper radioligand were used: 2.5 nM [^3H]-8-OH-DPAT (PerkinElmer, #NET929001MC) for 5-HT1AR; 1 nM [^3H]-ketanserin (PerkinElmer, #NET791250UC) for 5-HT2AR; 2 nM [^3H]-LSD (PerkinElmer, #NET638250UC) for 5-HT6R; and 0.8 nM [^3H]-5-CT (PerkinElmer, #NET1188U100UC) for 5-HT7R or 2.5 nM [^3H]-raclopride (PerkinElmer, #NET975001MC) for D2LR. Non-specific binding was determined using 10 μM 5-HT for 5-HT1AR and 5-HT7R, 20 μM mianserin for 5-HT2AR, 10 μM methiothepine for 5-HT6R, and 10 μM haloperidol for D2LR. […] Results were expressed as means of at least three separate experiments.
With `CC1(C)Cc2cccc(OCCN3CCC(NS(=O)(=O)c4cccc(Cl)c4)CC3)c2O1` [Compound 7, 3-Chloro-N-{1-[2-(2,2-dimethyl-2,3-dihydrobenzofuran-7-yloxy)ethyl]piperidin-4-yl}benzenesulfonamide], the Ki amounted to 64 ± 15 nM.
On the same count and under the same terms, with `COc1ccc(Cl)cc1S(=O)(=O)NC1CCN(CCOc2cccc3c2OC(C)(C)C3)CC1` [Compound 9, 5-Chloro-2-methoxy-N-{1-[2-(2,2-dimethyl-2,3-dihydrobenzofuran-7-yloxy)ethyl]piperidin-4-yl}benzenesulfonamide] the figure was 86 ± 26 nM.
`COc1ccc(OC)c(S(=O)(=O)NC2CCN(CCOc3cccc4c3OC(C)(C)C4)CC2)c1` [Compound 10, 2,5-Dimethoxy-N-{1-[2-(2,2-dimethyl-2,3-dihydrobenzofuran-7-yloxy)ethy]piperidin-4-yl}benzenesulfonamide]: the Ki worked out at 95 ± 18 nM.
For the molecule `CC1(C)Cc2cccc(OCCN3CCC(NS(=O)(=O)c4cccc5ccccc45)CC3)c2O1` [Compound 11, 1-Naphthalene-N-{1-[2-(2,2-dimethyl-2,3-dihydrobenzofuran-7-yloxy)ethyl]piperidin-4-yl}sulfonamide], the Ki stood at 50 ± 16 nM.
Same read-out and setting: the result for `CC1(C)Cc2cccc(OCCN3CCC(NS(=O)(=O)c4ccc5ccccc5c4)CC3)c2O1` [Compound 12, 2-Naphthalene-N-{1-[2-(2,2-dimethyl-2,3-dihydrobenzofuran-7-yloxy)ethyl]piperidin-4-yl}sulfonamide] reads 67 ± 21 nM.
Same read-out and setting: with `CC1(C)Cc2cccc(OCCN3CCC(CNS(=O)(=O)c4ccc(F)cc4)CC3)c2O1` [Compound 14, 4-Fluoro-N-({1-[2-(2,2-dimethyl-2,3-dihydrobenzofuran-7-yloxy)ethyl]piperidin-4-yl}methyl)benzenesulfonamide] the figure was 727 ± 65 nM; with `CC1(C)Cc2cccc(OCCN3CCC(CNS(=O)(=O)c4cccc(Cl)c4)CC3)c2O1` [Compound 15, 3-Chloro-N-({1-[2-(2,2-dimethyl-2,3-dihydrobenzofuran-7-yloxy)ethyl]piperidin-4-yl}methyl)benzenesulfonamide], 664 ± 82 nM.
As for `CC1(C)Cc2cccc(OCCN3CCC(CNS(=O)(=O)c4cc(Cl)ccc4F)CC3)c2O1` [Compound 16], the Ki turned out to be 316 ± 73 nM.
For the molecule `COc1ccc(Cl)cc1S(=O)(=O)NCC1CCN(CCOc2cccc3c2OC(C)(C)C3)CC1` [Compound 17, 5-Chloro-2-methoxy-N-({1-[2-(2,2-dimethyl-2,3-dihydrobenzofuran-7-yloxy)ethyl]piperidin-4-yl}methyl)benzenesulfonamide], the Ki stood at 488 ± 70 nM.
The same measure, in the same setting: with `CC1(C)Cc2cccc(OCCN3CCC(CNS(=O)(=O)c4cccc5ccccc45)CC3)c2O1` [Compound 18, 1-Naphthalene-N-({1-[2-(2,2-dimethyl-2,3-dihydrobenzofuran-7-yloxy)ethyl]piperidin-4-yl}methyl)sulfonamide] the figure was 366 ± 69 nM; with `CC1(C)Cc2cccc(OCCN3CCC(CNS(=O)(=O)c4cncc5ccccc45)CC3)c2O1` [Compound 19, 4-Isoquinoline-N-({1-[2-(2,2-dimethyl-2,3-dihydrobenzofuran-7-yloxy)ethyl]piperidin-4-yl}methyl)sulfonamide], 387 ± 58 nM.

The next series concerns Albino Swiss mice. The experiment in a line: forced swim test. It is filed as in vivo. As to conditions: ip, 30 min before test. The method, then:
Adult male Albino Swiss mice (CD-1, 8 weeks old, 25–30 g: Jagiellonian University Medical College, Krakow, Poland) were used in the study. Animals were housed in groups of 8 in a transparent plastic cage (382 × 220 × 150 mm) at room temperature (22 ± 2 °C), on a 12 h light/dark cycle with ad libitum access to food and water. Mice were handled for one week before starting the experimental procedures. The separate groups of animals were used in the forced swim test and in the locomotor studies. All studies were approved by the Institutional Animal Care and Ethics Committee of the Jagiellonian University (approval no.: 80/2015). […] Tested compounds were dissolved with 1% Tween 80. […] The control animals were given ip injections of the 2% DMSO in 1% Tween 80 (vehicle). The volume of vehicle or drug solutions was 10 mL/kg. The experiment was performed on mice according to the method previously described. Mice were forced to swim individually in the glass cylinders (height 25 cm, diameter 10 cm) filled with water at 24 ± 1 °C to a depth of 10 cm and left there for 6 min. Following a 2 min habituation period, total time spent immobile was recorded over the next 4 min. The animal was regarded as immobile when it remained floating passively in the water, making only small movements to keep its head above the water.
Consider `CN1CCN2c3ncccc3Cc3ccccc3C2C1` (centres unmarked) [Mirtazapine, reference compound], for which the “active dose in FST (antidepressant-like effect)” value is 16 mg/kg.

A further series relates to Albino Swiss mice. The experiment in a line: spontaneous locomotor activity. Format: in vivo. The conditions noted are these: ip, doses effective in the FST (6: 4, 8 mg/kg; mirtazapine: 16 mg/kg). The method, then: Adult male Albino Swiss mice (CD-1, 8 weeks old, 25–30 g: Jagiellonian University Medical College, Krakow, Poland) were used in the study. Animals were housed in groups of 8 in a transparent plastic cage (382 × 220 × 150 mm) at room temperature (22 ± 2 °C), on a 12 h light/dark cycle with ad libitum access to food and water. Mice were handled for one week before starting the experimental procedures. The separate groups of animals were used in the forced swim test and in the locomotor studies. All studies were approved by the Institutional Animal Care and Ethics Committee of the Jagiellonian University (approval no.: 80/2015).
Tested compounds were dissolved with 1% Tween 80. […] The control animals were given ip injections of the 2% DMSO in 1% Tween 80 (vehicle). The volume of vehicle or drug solutions was 10 mL/kg.
Locomotor activity was recorded with an Opto M3 multichannel activity monitor, photoresistor actometers connected to a counter for the recording of light-beam interruptions (MultiDevice Software v1.3, Columbus Instruments, Columbus, OH, USA). The mice, after being placed into the cages individually, had their activity evaluated between the 2nd and the 6th minute. The chosen time period corresponded with the time interval considered in the FST. Spontaneous locomotor activity was evaluated as the distance travelled plus the movements of climbing by animals.
In the case of `CN1CCN2c3ncccc3Cc3ccccc3C2C1` (centres unmarked) [Mirtazapine, reference compound], the “influence on spontaneous locomotor activity (sedation)” value is listed as “induced sedation”.

Another series deals with T1, human 5-HT7b receptor.
Test: not given
The conditions noted are these: Figure 1, earlier lead; read-out: Ki (5-HT7R); cited from earlier work.
For the molecule `CC(C)Oc1ccccc1OCCN1CCC(NS(=O)(=O)c2ccc(F)cc2)CC1` [PZ-971], the inhibition constant (Ki) was 21 nM.
